Measured values taken from patent publication US20230270712A1, “NOBILETIN COMPOSITIONS AND METHODS FOR THE TREATMENT AND PREVENTION OF COVID-19 AND RELATED PATHOLOGIES” (CAS PROPERTIES, LLC, priority 2020, published 2023).
Like-named read-outs stand apart in the source and are kept apart here.

Legend:
[1] = system: MCP-1; conditions: cited from earlier work
[2] = system: natural killer (NK) cells; conditions: cited from earlier work
[3] = system: induced lung damage; conditions: acute lung injury research model, dose-dependent; cited from earlier work
[4] = molecular target: MMP-2 (Homo sapiens, UniProt P08253); conditions: cited from earlier work
[5] = system: leukocyte infiltration into inflamed tissue; conditions: in vivo; cited from earlier work
[6] = molecular target: MMP-9 (Homo sapiens, UniProt P14780); conditions: cited from earlier work
[7] = system: lung function; assay: lung function in subjects having severe pneumonia; assay type: in vivo; conditions: including from COVID-19
[8] = system: toll-like receptor (TLR) 2+TLR4; conditions: cited from earlier work
[9] = system: TIMP-1; conditions: cited from earlier work
[10] = system: IL1-β; conditions: cited from earlier work
[11] = system: platelet aggregation; conditions: cited from earlier work
[12] = molecular target: COX-2 (Homo sapiens, UniProt P35354); conditions: cited from earlier work
[13] = system: enterovirus 71; conditions: cited from earlier work
[14] = system: hepatitis C virus; conditions: cited from earlier work
[15] = system: TNF-α; conditions: cited from earlier work
[16] = bioavailability and tissue penetration; conditions: in vivo
[17] = system: 5′ adenosine monophosphate-activated protein kinase (AMPK); conditions: cited from earlier work
[18] = system: IL-6; conditions: cited from earlier work
[19] = molecular target: MMP-1 (Homo sapiens, UniProt P03956); conditions: cited from earlier work
[20] = system: chikungunya (CHIKV); conditions: cited from earlier work
[21] = system: IL1-α; conditions: cited from earlier work
[22] = molecular target: MMP-3 (Homo sapiens, UniProt P08254); conditions: cited from earlier work
[23] = in vivo; cited from earlier work
[24] = higher concentration of nobiletin

Chain of MMP-2 (P08253 110-660, species assumed): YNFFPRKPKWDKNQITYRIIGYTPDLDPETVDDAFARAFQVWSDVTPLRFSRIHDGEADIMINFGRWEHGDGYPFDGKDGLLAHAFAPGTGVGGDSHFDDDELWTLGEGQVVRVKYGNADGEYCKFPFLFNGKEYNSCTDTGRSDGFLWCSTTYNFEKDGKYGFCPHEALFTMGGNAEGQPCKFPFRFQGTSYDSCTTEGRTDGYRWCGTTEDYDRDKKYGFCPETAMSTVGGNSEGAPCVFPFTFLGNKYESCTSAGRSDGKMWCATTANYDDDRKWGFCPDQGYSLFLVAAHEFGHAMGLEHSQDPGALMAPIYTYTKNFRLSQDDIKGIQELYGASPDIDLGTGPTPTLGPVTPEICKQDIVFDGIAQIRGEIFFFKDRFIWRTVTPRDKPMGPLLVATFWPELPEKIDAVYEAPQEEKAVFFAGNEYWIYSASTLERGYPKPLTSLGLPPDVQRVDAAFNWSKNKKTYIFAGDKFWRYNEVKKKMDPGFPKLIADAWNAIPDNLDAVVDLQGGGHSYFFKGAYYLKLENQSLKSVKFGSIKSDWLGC
Chain of MMP-9 (P14780 94-707, species assumed): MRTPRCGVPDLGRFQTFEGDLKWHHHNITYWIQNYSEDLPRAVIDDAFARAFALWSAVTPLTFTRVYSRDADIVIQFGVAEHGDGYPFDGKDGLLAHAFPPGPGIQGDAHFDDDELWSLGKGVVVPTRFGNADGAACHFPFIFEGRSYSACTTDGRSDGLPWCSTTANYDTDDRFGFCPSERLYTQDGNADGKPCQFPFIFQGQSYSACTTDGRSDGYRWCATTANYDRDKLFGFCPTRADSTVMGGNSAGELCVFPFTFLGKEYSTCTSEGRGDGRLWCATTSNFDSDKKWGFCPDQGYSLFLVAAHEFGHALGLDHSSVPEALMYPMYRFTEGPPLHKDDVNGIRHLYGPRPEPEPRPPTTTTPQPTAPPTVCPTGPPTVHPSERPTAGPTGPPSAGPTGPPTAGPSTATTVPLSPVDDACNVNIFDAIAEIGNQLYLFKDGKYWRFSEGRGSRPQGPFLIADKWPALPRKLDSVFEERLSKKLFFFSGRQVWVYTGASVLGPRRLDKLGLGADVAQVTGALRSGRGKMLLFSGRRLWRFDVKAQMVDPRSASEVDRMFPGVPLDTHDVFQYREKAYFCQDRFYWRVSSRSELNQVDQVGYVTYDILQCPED
Chain of MMP-3 (P08254 100-477, species assumed): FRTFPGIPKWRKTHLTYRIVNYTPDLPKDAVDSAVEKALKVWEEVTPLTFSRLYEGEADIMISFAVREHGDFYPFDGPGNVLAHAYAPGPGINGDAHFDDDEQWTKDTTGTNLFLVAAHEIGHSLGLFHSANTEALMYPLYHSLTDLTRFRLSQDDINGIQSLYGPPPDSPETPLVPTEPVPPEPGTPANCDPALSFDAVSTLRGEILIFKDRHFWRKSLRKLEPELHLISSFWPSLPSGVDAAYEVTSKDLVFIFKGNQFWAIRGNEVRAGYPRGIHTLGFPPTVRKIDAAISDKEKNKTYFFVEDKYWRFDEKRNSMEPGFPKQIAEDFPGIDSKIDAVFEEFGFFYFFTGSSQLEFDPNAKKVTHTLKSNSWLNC
Chain of COX-2 (P35354 18-604): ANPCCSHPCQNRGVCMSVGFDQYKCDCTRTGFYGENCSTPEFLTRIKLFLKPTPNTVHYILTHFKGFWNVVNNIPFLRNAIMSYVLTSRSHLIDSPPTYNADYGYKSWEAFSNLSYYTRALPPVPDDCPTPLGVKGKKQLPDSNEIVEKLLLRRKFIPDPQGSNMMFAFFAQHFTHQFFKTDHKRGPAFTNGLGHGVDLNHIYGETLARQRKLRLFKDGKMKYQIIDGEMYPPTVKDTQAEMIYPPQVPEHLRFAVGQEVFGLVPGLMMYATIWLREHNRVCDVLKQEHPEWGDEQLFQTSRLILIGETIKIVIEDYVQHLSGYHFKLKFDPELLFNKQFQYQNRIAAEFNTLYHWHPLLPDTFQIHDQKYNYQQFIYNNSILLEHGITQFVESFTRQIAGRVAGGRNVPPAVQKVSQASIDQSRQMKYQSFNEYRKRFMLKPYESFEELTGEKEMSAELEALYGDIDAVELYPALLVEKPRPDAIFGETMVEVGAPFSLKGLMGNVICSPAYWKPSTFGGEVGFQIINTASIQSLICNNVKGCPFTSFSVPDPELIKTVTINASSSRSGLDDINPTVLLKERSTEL
Chain of MMP-1 (P03956 100-469, species assumed): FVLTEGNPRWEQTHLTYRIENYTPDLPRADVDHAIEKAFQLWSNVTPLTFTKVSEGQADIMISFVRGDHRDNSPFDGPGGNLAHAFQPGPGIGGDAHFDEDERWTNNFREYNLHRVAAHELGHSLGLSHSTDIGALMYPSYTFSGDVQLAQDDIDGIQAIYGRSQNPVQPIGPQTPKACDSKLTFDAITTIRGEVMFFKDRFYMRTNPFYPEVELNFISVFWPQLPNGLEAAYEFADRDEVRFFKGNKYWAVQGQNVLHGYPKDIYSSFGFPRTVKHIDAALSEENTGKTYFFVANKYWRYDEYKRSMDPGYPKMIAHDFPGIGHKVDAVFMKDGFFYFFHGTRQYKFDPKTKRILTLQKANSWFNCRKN

With `COc1ccc(-c2cc(=O)c3c(OC)c(OC)c(OC)c(OC)c3o2)cc1OC` [nobiletin, 5,6,7,8,3′,4′-hexamethoxyflavone] as the compound, how does the “inhibition of MCP-1” value [1] read?
Its value is “significantly inhibiting”.

What about the “anti-viral activity of NK cells” value [2] of the same compound?
The value was “potentiating”.

What about the induced lung damage [3] of the same compound?
Its induced lung damage is “nearly eliminated lung damage”.

What about the “inhibition of MMP-2” value [4] of the same compound?
The value was “inhibiting”.

What about the “leukocyte infiltration into inflamed tissue” value [5] of the same compound?
Its value is “significantly reduces”.

What about the “inhibition of MMP-9” value [6] of the same compound?
Its value is “inhibiting”.

What about the lung function [7] of the same compound?
Its lung function is “excellent ability to restore lung function”.

And the “inhibition of TLR2+TLR4” value [8]?
The value was “significantly inhibiting”.

And the “effect on TIMP-1” value [9]?
The value was “upregulating”.

And the “inhibition of IL1-β” value [10]?
The value was “significantly inhibiting”.

What about the platelet aggregation [11] of the same compound?
Its platelet aggregation is “suppression of platelet aggregation”.

What about the “inhibition of COX-2 (and its metabolite PGE2)” value [12] of the same compound?
Its value is “inhibiting”.

And the “anti-viral activity against enterovirus 71” value [13]?
The value was “direct anti-viral activity”.

What about the “activity against hepatitis C virus” value [14] of the same compound?
The value was “significant activity”.

What about the “inhibition of TNF-α” value [15] of the same compound?
Its value is “significantly inhibiting”.

And the relative bioavailability [16]?
The relative bioavailability was “high relative bioavailability”.

What about the tissue penetration [16] of the same compound?
The tissue penetration was “high tissue penetration”.

And the “AMPK levels and activity” value [17]?
The value was “increasing”.

And the “inhibition of IL-6” value [18]?
Its value is “significantly inhibiting”.

And the “inhibition of MMP-1” value [19]?
Its value is “inhibiting”.

What about the “inhibition of chikungunya (CHIKV) infection” value ([20]; at viral entry as well as during translation/replication state) of the same compound?
The value was “inhibit chikungunya (CHIKV) infection”.

What about the “cell survival of virally infected cells” value [20, 24] of the same compound?
Its value is roughly 90%.

And the “increase in survival of virally infected cells” value [20, 24]?
Its value is 6 fold.

What about the “increase in survival of virally infected cells” value ([20]; lower concentration of nobiletin, cell survival without it <15%) of the same compound?
Its value is 4 fold.

What about the “inhibition of IL1-α” value [21] of the same compound?
Its value is “significantly inhibiting”.

And the “inhibition of MMP-3” value [22]?
The value was “inhibiting”.

What about the anti-obesity effects [23] of the same compound?
Its anti-obesity effects is “weight loss, fat loss”.
